Test results reported in patent US6358885B1, “Substituted phenylheterocyclic herbicides” (Mississippi State University, priority 1992, dated 2002).

What was measured:
rice = assay: Test C flood test plant response rating 0 to 100; format: in vivo, Oryza sativa
Excerpt: The compounds evaluated in this test were formulated in a non-phytoxic solvent and applied to the soil surface before plant seedlings emerged (preemergence application), to water that covered the soil surface (flood application), and to plants that were in the one-to-four leaf stage (postemergence application). A sandy loam soil was used for the preemergence and postemergence tests, while a silt loam soil was used in the flood test. Water depth was approximately 2.5 cm for the flood test and was maintained at this level for the duration of the test. Plant species in the preemergence and postemergence tests consisted of barley (Hordeum vulgare), bedstraw (Galium aparine), blackgrass (Alopecurus myosuroides), chickweed (Stellaria media), corn (Zea mays), cotton (Gossypium hirsutum), crabgrass (Digitaria sanguinalis), downy brome (Bromus tectorum), giant foxtail (Setaria faberii), lambsquarters (Chenopodium album), morningglory (Ipomoea hederacea), pigweed ([…]), rape (Brassica napus), ryegrass (Lolium multiflorum), sorghum (Sorghum bicolor), soybean (Glycine max), speedwell (Veronica persica), sugar beet (Beta vulgaris), velvetleaf (Abutilon theophrasti), wheat (Triticum aestivum), wild buckwheat (Polygonum convolvulus), and wild oat (Avena fatua). All plant species were planted one day before application of the compound for the preemergence portion-of this test. Plantings of these species were adjusted to produce plants of appropriate size for the post-emergence portion of the test. […] All plant species were grown using normal greenhouse practices. Visual evaluations of injury expressed on treated plants, when compared to untreated controls, were recorded approximately fourteen to twenty one days after application of the test compound. […] A dash (-) response means no test result.

cotton = assay: Test C preemergence/postemergence greenhouse plant response rating 0 to 100; format: in vivo, Gossypium hirsutum; details: for Plant response rating, Cotton: 125 g/ha, 0 to 100 scale
How it was run: (§1)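 Compounds in non-phytotoxic solvent went onto sandy loam before emergence (seeded one day earlier) or onto plants at the one-to-four leaf stage. Duck salad was treated via flood water (~2.5 cm, maintained) over silt loam.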

crabgrass = assay: as above; format: in vivo, Digitaria sanguinalis; details: for Plant response rating, Crabgrass: 125 g/ha, 0 to 100 scale
How it was run: as §1

velvetleaf [1] = assay: Test B preemergence/postemergence greenhouse plant response rating 0 to 10; format: in vivo, Abutilon theophrasti; details: for Plant response rating, Velvetleaf: 0 to 10 scale
How it was run: (§2)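 Postemergence treatment of plants two to eighteen cm tall ran alongside preemergence treatment of planted seed, each using compound in a non-phytotoxic solvent.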

barnyardgrass = assay: as above; format: in vivo, Echinochloa crus-galli; details: for Plant response rating, Barnyardgrass: 0 to 10 scale
How it was run: as §2

sorghum = assay: Test C preemergence/postemergence greenhouse plant response rating 0 to 100; format: in vivo, Sorghum bicolor; details: for Plant response rating, Sorghum: 125 g/ha, 0 to 100 scale
How it was run: as §1

wild oat = assay: as above; format: in vivo, Avena fatua; details: for Plant response rating, Wild oat: 125 g/ha, 0 to 100 scale
How it was run: as §1

sugar beet = assay: Test B preemergence/postemergence greenhouse plant response rating 0 to 10; format: in vivo, Beta vulgaris; details: for Plant response rating, Sugar beet: 0 to 10 scale
How it was run: as §2

velvetleaf [2] = assay: Test C preemergence/postemergence greenhouse plant response rating 0 to 100; format: in vivo, Abutilon theophrasti; details: for Plant response rating, Velvetleaf: 125 g/ha, 0 to 100 scale
How it was run: as §1

lambsquarters = assay: Test B preemergence/postemergence greenhouse plant response rating 0 to 10; format: in vivo, Chenopodium album; details: for Plant response rating, Lambsquarter: 0 to 10 scale
How it was run: as §2

giant foxtail = assay: as above; format: in vivo, Setaria faberii; details: for Plant response rating, Giant foxtail: 0 to 10 scale
How it was run: as §2

pigweed = assay: Test C preemergence/postemergence greenhouse plant response rating 0 to 100; format: in vivo, Amaranthusretroflexus; details: for Plant response rating Pigweed: 125 g/ha, 0 to 100 scale
How it was run: as §1

Structure (SMILES): COCOc1cc(-c2nn3c(c2Cl)CCCC3)c(F)cc1Cl [Compound 58]
- Plant response rating (0 to 100), Rice Japonica (rice; POSTEMERGENCE section, flood test, Rate 2 g/ha): 0
- Plant response rating (0 to 100), Rice Japonica (rice; Rate 8 g/ha, under POSTEMERGENCE head (flood test species)): 0
- Plant response rating (0 to 100), Rice Japonica (rice; Rate 31 g/ha, under POSTEMERGENCE head (flood test species)): 0
- Plant response rating Rice Japonica (rice; flood test species listed under POSTEMERGENCE, 125 g/ha, 0 to 100 scale): 50
- Plant response rating, Cotton (cotton; POSTEMERGENCE): 100
- Plant response rating (0 to 100), Cotton (cotton; POSTEMERGENCE, Rate 2 g/ha): 95
- Plant response rating, Cotton (cotton; PREEMERGENCE): 40
- Plant response rating (0 to 100), Cotton (cotton; PREEMERGENCE, Rate 2 g/ha): 0
- Plant response rating (0 to 100), Cotton (cotton; Rate 8 g/ha, POSTEMERGENCE): 100
- Plant response rating (0 to 100), Cotton (cotton; Rate 8 g/ha, PREEMERGENCE): 0
- Plant response rating (0 to 100), Cotton (cotton; Rate 31 g/ha, POSTEMERGENCE): 100
- Plant response rating (0 to 100), Cotton (cotton; Rate 31 g/ha, PREEMERGENCE): 10
- Plant response rating, Crabgrass (crabgrass; POSTEMERGENCE): 70
- Plant response rating (0 to 100), Crabgrass (crabgrass; POSTEMERGENCE, Rate 2 g/ha): 20
- Plant response rating, Crabgrass (crabgrass; PREEMERGENCE): 100
- Plant response rating (0 to 100), Crabgrass (crabgrass; PREEMERGENCE, Rate 2 g/ha): 0
- Plant response rating (0 to 100), Crabgrass (crabgrass; Rate 8 g/ha, POSTEMERGENCE): 30
- Plant response rating (0 to 100), Crabgrass (crabgrass; Rate 8 g/ha, PREEMERGENCE): 0
- Plant response rating (0 to 100), Crabgrass (crabgrass; Rate 31 g/ha, POSTEMERGENCE): 60
- Plant response rating (0 to 100), Crabgrass (crabgrass; Rate 31 g/ha, PREEMERGENCE): 50
- Plant response rating, Velvetleaf (velvetleaf [1]; POSTEMERGENCE, Rate 50 g/ha): 9
- Plant response rating, Velvetleaf (velvetleaf [1]; PREEMERGENCE, Rate 50 g/ha): 10
- Plant response rating (0 to 10 scale), Velvetleaf (velvetleaf [1]; PREEMERGENCE, Rate 200 g/ha): 10
- Plant response rating, Velvetleaf (velvetleaf [1]; Rate 200 g/ha, POSTEMERGENCE): 10
- Plant response rating, Barnyardgrass (barnyardgrass; POSTEMERGENCE, Rate 50 g/ha): 6
- Plant response rating, Barnyardgrass (barnyardgrass; PREEMERGENCE, Rate 50 g/ha): 4
- Plant response rating (0 to 10 scale), Barnyardgrass (barnyardgrass; PREEMERGENCE, Rate 200 g/ha): 7
- Plant response rating, Barnyardgrass (barnyardgrass; Rate 200 g/ha, POSTEMERGENCE): 9
- Plant response rating, Sorghum (sorghum; POSTEMERGENCE): 85
- Plant response rating (0 to 100), Sorghum (sorghum; POSTEMERGENCE, Rate 2 g/ha): 30
- Plant response rating, Sorghum (sorghum; PREEMERGENCE): 20
- Plant response rating (0 to 100), Sorghum (sorghum; PREEMERGENCE, Rate 2 g/ha): 0
- Plant response rating (0 to 100), Sorghum (sorghum; Rate 8 g/ha, POSTEMERGENCE): 50
- Plant response rating (0 to 100), Sorghum (sorghum; Rate 8 g/ha, PREEMERGENCE): 0
- Plant response rating (0 to 100), Sorghum (sorghum; Rate 31 g/ha, POSTEMERGENCE): 50
- Plant response rating (0 to 100), Sorghum (sorghum; Rate 31 g/ha, PREEMERGENCE): 10
- Plant response rating, Wild oat (wild oat; POSTEMERGENCE): 75
- Plant response rating (0 to 100), Wild oat (wild oat; POSTEMERGENCE, Rate 2 g/ha): 20
- Plant response rating, Wild oat (wild oat; PREEMERGENCE): 75
- Plant response rating (0 to 100), Wild oat (wild oat; PREEMERGENCE, Rate 2 g/ha): 0
- Plant response rating (0 to 100), Wild oat (wild oat; Rate 8 g/ha, POSTEMERGENCE): 30
- Plant response rating (0 to 100), Wild oat (wild oat; Rate 8 g/ha, PREEMERGENCE): 0
- Plant response rating (0 to 100), Wild oat (wild oat; Rate 31 g/ha, POSTEMERGENCE): 50
- Plant response rating (0 to 100), Wild oat (wild oat; Rate 31 g/ha, PREEMERGENCE): 10
- Plant response rating, Sugar beet (sugar beet; POSTEMERGENCE, Rate 50 g/ha): 10
- Plant response rating, Sugar beet (sugar beet; PREEMERGENCE, Rate 50 g/ha): 9
- Plant response rating (0 to 10 scale), Sugar beet (sugar beet; PREEMERGENCE, Rate 200 g/ha): 10
- Plant response rating, Sugar beet (sugar beet; Rate 200 g/ha, POSTEMERGENCE): 10
- Plant response rating, Velvetleaf (velvetleaf [2]; POSTEMERGENCE): 100
- Plant response rating (0 to 100), Velvetleaf (velvetleaf [2]; POSTEMERGENCE, Rate 2 g/ha): 40
- Plant response rating, Velvetleaf (velvetleaf [2]; PREEMERGENCE): 100
- Plant response rating (0 to 100), Velvetleaf (velvetleaf [2]; PREEMERGENCE, Rate 2 g/ha): 0
- Plant response rating (0 to 100), Velvetleaf (velvetleaf [2]; Rate 8 g/ha, POSTEMERGENCE): 75
- Plant response rating (0 to 100), Velvetleaf (velvetleaf [2]; Rate 8 g/ha, PREEMERGENCE): 40
- Plant response rating (0 to 100), Velvetleaf (velvetleaf [2]; Rate 31 g/ha, POSTEMERGENCE): 80
- Plant response rating (0 to 100), Velvetleaf (velvetleaf [2]; Rate 31 g/ha, PREEMERGENCE): 100
- Plant response rating, Lambsquarter (lambsquarters; POSTEMERGENCE, Rate 50 g/ha): 10
- Plant response rating, Lambsquarter (lambsquarters; PREEMERGENCE, Rate 50 g/ha): 10
- Plant response rating (0 to 10 scale), Lambsquarter (lambsquarters; PREEMERGENCE, Rate 200 g/ha): 10
- Plant response rating, Lambsquarter (lambsquarters; Rate 200 g/ha, POSTEMERGENCE): 10
- Plant response rating, Giant foxtail (giant foxtail; POSTEMERGENCE, Rate 50 g/ha): 6
- Plant response rating, Giant foxtail (giant foxtail; PREEMERGENCE, Rate 50 g/ha): 9
- Plant response rating (0 to 10 scale), Giant foxtail (giant foxtail; PREEMERGENCE, Rate 200 g/ha): 10
- Plant response rating, Giant foxtail (giant foxtail; Rate 200 g/ha, POSTEMERGENCE): 6
- Plant response rating Pigweed (pigweed; POSTEMERGENCE): 100
- Plant response rating (0 to 100), Pigweed (pigweed; POSTEMERGENCE, Rate 2 g/ha): 90
- Plant response rating Pigweed (pigweed; PREEMERGENCE): 100
- Plant response rating (0 to 100), Pigweed (pigweed; PREEMERGENCE, Rate 2 g/ha): 0
- Plant response rating (0 to 100), Pigweed (pigweed; Rate 8 g/ha, POSTEMERGENCE): 100
- Plant response rating (0 to 100), Pigweed (pigweed; Rate 8 g/ha, PREEMERGENCE): 100
- Plant response rating (0 to 100), Pigweed (pigweed; Rate 31 g/ha, POSTEMERGENCE): 100
- Plant response rating (0 to 100), Pigweed (pigweed; Rate 31 g/ha, PREEMERGENCE): 100
